Reference: ChEMBL document CHEMBL3286130, “8-Substituted 2-alkynyl-N(9)-propargyladenines as A2A adenosine receptor antagonists” (Bioorg Med Chem, 2014)
Active and inactive are the calls of the source. No cut-off for these calls is given here.

Tests used:
[1] = target: Adenosine receptor A2a (Rattus norvegicus, UniProt P30543); assay: Antagonist activity at adenosine A2A receptor in 5-HT-treated Wistar rat femoral vein assessed as inhibition of 2-octyn-1-yladenosine-induced vasodilation incubated for 10 mins prior to addition of 5-HT
[2] = system: Rattus norvegicus; assay: Antiparkinsonian activity in unilateral 6-hydroxydopamine-lesioned Sprague-Dawley rat assessed as potentiation of L-DOPA-induced turning behavior at 3 mg/kg, po measured for 15 mins; type: functional, organism-based; design: dose 3 mg/kg
[3] = system: Mus musculus; assay: Anticataleptogenic activity in po dosed ddY mouse assessed as reduction in haloperidol-induced catelepsy measured after 5 hrs; type: functional; settings: for minimal effective dose: read-out: MED
[4] = system: Mus musculus; assay: Anticataleptogenic activity in ddY mouse assessed as reduction in haloperidol-induced catelepsy at 3 mg/kg, po measured after 1 to 7 hrs; type: functional, organism-based; design: dose 3 mg/kg
[5] = target: Adenosine receptor A2a (Homo sapiens, UniProt P29274); assay: biochemical
Description: Displacement of [3H]-CGS-21680 from human adenosine A2A receptor expressed in HEK293 cells after 90 mins

[6] = system: Rattus norvegicus; assay: Antiparkinsonian activity in unilateral 6-hydroxydopamine-lesioned Sprague-Dawley rat assessed as induction of stereotyped behavior at 3 mg/kg, po measured for 15 mins; type: functional, organism-based; design: dose 3 mg/kg
[7] = target: Adenosine receptor A2a (Rattus norvegicus) (UniProt P30543); assay: Potency index, ratio of istradefylline IC50 to compound IC50 for adenosine A2A receptor in 5-HT-treated Wistar rat femoral vein assessed as inhibition of 2-octyn-1-yladenosine-induced vasodilation
Chain of Adenosine receptor A2a (Rattus norvegicus) (P30543 whole entry): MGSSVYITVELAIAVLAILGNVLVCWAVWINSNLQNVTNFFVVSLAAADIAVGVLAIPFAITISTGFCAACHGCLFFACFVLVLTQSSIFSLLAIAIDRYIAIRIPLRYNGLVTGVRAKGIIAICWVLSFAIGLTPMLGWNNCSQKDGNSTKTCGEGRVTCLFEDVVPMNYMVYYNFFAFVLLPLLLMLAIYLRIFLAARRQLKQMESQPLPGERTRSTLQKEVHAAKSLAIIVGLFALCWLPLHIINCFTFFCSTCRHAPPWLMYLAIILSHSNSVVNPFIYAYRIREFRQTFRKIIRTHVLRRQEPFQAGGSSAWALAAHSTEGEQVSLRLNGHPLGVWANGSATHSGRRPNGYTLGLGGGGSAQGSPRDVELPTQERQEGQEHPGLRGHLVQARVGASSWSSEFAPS

Chain of Adenosine receptor A2a (Rattus norvegicus, UniProt P30543) (P30543 whole entry): as above
Chain of Adenosine receptor A2a (Homo sapiens, UniProt P29274) (P29274 whole entry): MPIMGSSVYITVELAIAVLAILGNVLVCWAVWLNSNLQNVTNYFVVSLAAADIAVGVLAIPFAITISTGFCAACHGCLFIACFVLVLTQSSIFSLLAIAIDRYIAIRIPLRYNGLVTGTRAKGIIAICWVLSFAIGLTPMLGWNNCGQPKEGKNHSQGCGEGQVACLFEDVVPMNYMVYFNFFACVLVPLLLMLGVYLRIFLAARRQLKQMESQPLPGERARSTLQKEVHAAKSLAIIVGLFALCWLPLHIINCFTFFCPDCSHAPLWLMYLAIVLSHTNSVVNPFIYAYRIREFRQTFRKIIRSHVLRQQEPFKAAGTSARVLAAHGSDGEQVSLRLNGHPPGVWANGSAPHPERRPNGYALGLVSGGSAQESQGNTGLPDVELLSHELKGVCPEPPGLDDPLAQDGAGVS

Row | SMILES | IC50 [1] | also measured
1 | CCCCCCC#Cc1nc(N)c2ncn(CC)c2n1 | 6700 nM | 
2 | C=CCn1cnc2c(N)nc(C#CCCCCCC)nc21 | > 10000 nM | 
3 | CCCCCCC#Cc1nc(N)c2ncn(CCO)c2n1 | > 10000 nM | 
4 | CCCCCCC#Cc1nc(N)c2ncn(CCC)c2n1 | > 10000 nM | 
5 | C#CCn1c(-n2nccn2)nc2c(N)nc(C#CCCCCCC)nc21 | 1.9 nM | 
6 | C#CCn1c(-c2ccco2)nc2c(N)nc(C#CCCCCCC)nc21 | 3.6 nM | 
7 | C#CCn1c(Br)nc2c(N)nc(C#CCCCCCC)nc21 | 5.1 nM | Activity [2]: Active; Activity [3]: Dose-dependent effect; minimal effective dose [3]: 3 mg/kg; Activity [4]: Active; Ki [5]: 0.56 nM; Activity [6]: inactive
8 | C#CCn1c(Br)nc2c(N)nc(C#CC3(O)CCCCC3)nc21 | 0.5 nM | 
9 | C#CCn1c(Cl)nc2c(N)nc(C#CC3(O)CCCCC3)nc21 | 3 nM | 
10 | CCCCCCC#Cc1nc(N)c2ncn(C)c2n1 | 9000 nM | 
11 | C#CCn1c(-c2ccccc2)nc2c(N)nc(C#CCCCCCC)nc21 | 75.5 nM | 
12 | CCCCCCC#Cc1nc(N)c2ncn(CC#N)c2n1 | > 10000 nM | 
13 | CCn1c(=O)c2c(nc(/C=C/c3ccc(OC)c(OC)c3)n2C)n(CC)c1=O [ISTRADEFYLLINE] |  | Activity [3]: Dose-dependent effect; minimal effective dose [3]: 3 mg/kg; Activity [4]: Active
14 | C#CCn1cnc2c(N)nc(C#CCCCCCC)nc21 | 200 nM | 
15 | CCCCCCC#Cc1nc(N)c2ncn(Cc3ccccc3)c2n1 | > 10000 nM | 
16 | C#CCn1c(-c2ccco2)nc2c(N)nc(C#CC3(O)CCCCC3)nc21 | 0.4 nM | Ratio IC50 [7]: 570
17 | C#CCn1c(-c2cccc(F)c2)nc2c(N)nc(C#CCCCCCC)nc21 | 22.8 nM | 
18 | C#CCn1cnc2c(N)nc(C#CC3(O)CCCCC3)nc21 | 97.3 nM | 
19 | C#CCn1c(Cl)nc2c(N)nc(C#CCCCCCC)nc21 | 6 nM | 
20 | CCCCCCC#Cc1nc(N)c2ncn(C3CCCC3)c2n1 | > 10000 nM | 
